# System: DOHH2 cells
# Experiment: Cell proliferation assay (MTS) in DOHH2 cells, mechanism-based assay for BTK inhibition
# Conditions: Homo sapiens, DOHH-2, 120 h incubation, 5000 cells/well
# From the text: Cell Proliferation Assays
# MTS testing kit was purchased from Promega. The DMEM, Fetal bovine serum and Penicillin-Streptomycin were purchased from Gibco. Dimethyl sulfoxide (DMSO) was purchased from Sigma.
# To investigate whether a compound is able to inhibit the activity of BTK in cells, a mechanism-based assay using DOHH2 (DSMZ catalog#: ACC47) and Mino (ATCC® Number CRL-3000™) cells was developed. In this assay, inhibition of BTK was detected by the inhibition of DOHH2 and Mino cell proliferations. DOHH2 or Mino cells were cultured in culture flasks to 40-80% confluence in RPMI-1640 plus 10% fetal bovine serum. C ells were collected and plated onto 96-well plates at desired cell density (DOHH2: 5000 cells/well; Mino: 10000 cells/well). Plates were incubated overnight at 37° C., with 5% CO2 to adhere. Compounds were added to the plates, and the final compound concentrations were 10000, 3333, 1111, […], 41, 14, 4.6 and 1.5 nM. Plates were placed at 37° C., with 5% CO2 for 120 h (DOHH2) or 72 h (Mino). 20 μl MTS/100 μl medium mixture solution were added to each well and the plates were incubated for exactly 2 hours. The reaction was stopped by adding 25 μl 10% SDS per well.
# Select compounds prepared as described above were assayed according to the biological procedures described herein.
row,SMILES,IC50
1,"Nc1n[nH]c(=O)c2c([C@@H]3CCN(C(=O)/C=C/[C@H]4CCN4)C3)cn(-c3ccc(Oc4ccccc4)cc3)c12 [Example 97, 7-amino-3-((S)-1-((E)-3-((R)-azetidin-2-yl)acryloyl)pyrrolidin-3-yl)-1-(4-phenoxyphenyl)-1,5-dihydro-4H-pyrrolo[2,3-d]pyridazin-4-one]",701 nM
2,"CN(C)C/C=C/C(=O)N1CCC[C@@H](c2cn(-c3ccc(Oc4ccccc4)cc3)c3c(N)n[nH]c(=O)c23)C1 [Example 103, (S,E)-7-amino-3-(1-(4-(dimethylamino)but-2-enoyl)piperidin-3-yl)-1-(4-phenoxyphenyl)-1,5-dihydro-4H-pyrrolo[2,3-d]pyridazin-4-one]",97 nM
3,"CN(C)C/C=C/C(=O)N1CC[C@@H](c2cn(-c3ccc(Oc4ccccc4)cc3)c3c(N)n[nH]c(=O)c23)C1 [Example 93, (S,E)-7-amino-3-(1-(4-(dimethylamino)but-2-enoyl)pyrrolidin-3-yl)-1-(4-phenoxyphenyl)-1,5-dihydro-4H-pyrrolo[2,3-d]pyridazin-4-one]",239 nM
4,"C=CC(=O)N1CC[C@@H](c2nn(-c3ccc(Oc4cc(F)cc(F)c4)cc3)c3c(N)n[nH]c(=O)c23)C1 [Example 46, (R)-3-(1-acryloylpyrrolidin-3-yl)-7-amino-1-(4-(3,5-difluorophenoxy)phenyl)-1,5-dihydro-4H-pyrazolo[3,4-d]pyridazin-4-one]",59 nM
5,"CC#CC(=O)N1CC[C@H](c2nn(-c3ccc(Oc4c(F)cccc4F)cc3)c3c(N)n[nH]c(=O)c23)C1 [Example 82, (S)-7-amino-3-(1-(but-2-ynoyl)pyrrolidin-3-yl)-1-(4-(2,6-difluorophenoxy)phenyl)-1,5-dihydro-4H-pyrazolo[3,4-d]pyridazin-4-one]",687 nM
6,"C=CC(=O)N1CCC[C@@H](c2cn(-c3ccc(Oc4ccccc4F)cc3)c3c(N)n[nH]c(=O)c23)C1 [Example 29, (S)-3-(1-acryloylpiperidin-3-yl)-7-amino-1-(4-(2-fluorophenoxy)phenyl)-1,5-dihydro-4H-pyrrolo [2,3-d]pyridazin-4-one]",46 nM
7,"C=CC(=O)N1CC[C@H](c2nn(-c3ccc(Oc4c(F)cccc4F)cc3)c3c(N)n[nH]c(=O)c23)C1 [Example 51, (S)-3-(1-acryloylpyrrolidin-3-yl)-7-amino-1-(4-(2,6-difluorophenoxy)phenyl)-1,5-dihydro-4H-pyrazolo[3,4-d]pyridazin-4-one]",215 nM
8,"C=CC(=O)N1CCC[C@@H](c2cn(-c3ccc(Oc4cc(F)cc(F)c4)cc3)c3c(N)n[nH]c(=O)c23)C1 [Example 34, (S)-3-(1-acryloylpiperidin-3-yl)-7-amino-1-(4-(3,5-difluorophenoxy)phenyl)-1,5-dihydro-4H-pyrrolo[2,3-d]pyridazin-4-one]",42 nM
9,"COC/C=C/C(=O)N1CCC[C@@H](c2cn(-c3ccc(Oc4ccccc4F)cc3)c3c(N)n[nH]c(=O)c23)C1 [Example 102, (S,E)-7-amino-1-(4-(2-fluorophenoxy)phenyl)-3-(1-(4-methoxybut-2-enoyl)piperidin-3-yl)-1,5-dihydro-4H-pyrrolo[2,3-d]pyridazin-4-one]",319 nM
10,"C=CC(=O)N1CCC(c2nn(-c3ccc(Oc4ccccc4)cc3)c3c(N)n[nH]c(=O)c23)C1 (stereo not drawn) [Example 5, 3-(1-acryloylpyrrolidin-3-yl)-7-amino-1-(4-phenoxyphenyl)-1,5-dihydro-4H-pyrazolo[3,4-d]pyridazin-4-one]",25 nM
11,"C=CC(=O)N1CC[C@H](c2nn(-c3ccc(Oc4cc(F)cc(F)c4)cc3)c3c(N)n[nH]c(=O)c23)C1 [Example 52, (S)-3-(1-acryloylpyrrolidin-3-yl)-7-amino-1-(4-(3,5-difluorophenoxy)phenyl)-1,5-dihydro-4H-pyrazolo[3,4-d]pyridazin-4-one]",321 nM
12,"C=CC(=O)N1CC[C@H](c2nn(-c3ccc(Oc4cccc(F)c4F)cc3)c3c(N)n[nH]c(=O)c23)C1 [Example 50, (S)-3-(1-acryloylpyrrolidin-3-yl)-7-amino-1-(4-(2,3-difluorophenoxy)phenyl)-1,5-dihydro-4H-pyrazolo[3,4-d]pyridazin-4-one]",678 nM
13,"CC#CC(=O)N1CCC[C@@H](c2nn(-c3ccc(Oc4ccccc4F)cc3)c3c(N)n[nH]c(=O)c23)C1 [Example 77, (R)-7-amino-3-(1-(but-2-ynoyl)piperidin-3-yl)-1-(4-(2-fluorophenoxy)phenyl)-1,5-dihydro-4H-pyrazolo[3,4-d]pyridazin-4-one]",666 nM
14,"CC#CC(=O)N1CC[C@@H](c2nn(-c3ccc(Oc4ccccc4F)cc3)c3c(N)n[nH]c(=O)c23)C1 [Example 73, (R)-7-amino-3-(1-(but-2-ynoyl)pyrrolidin-3-yl)-1-(4-(2-fluorophenoxy)phenyl)-1,5-dihydro-4H-pyrazolo[3,4-d]pyridazin-4-one]",440 nM
15,"C=CC(=O)N1CCC[C@H](c2cn(-c3ccc(Oc4ccccc4)cc3)c3c(N)n[nH]c(=O)c23)C1 [Example 12, (R)-3-(1-acryloylpiperidin-3-yl)-7-amino-1-(4-phenoxyphenyl)-1,5-dihydro-4H-pyrrolo[2,3-d]pyridazin-4-one]",74 nM
16,"CCN1CC[C@@H]1/C=C/C(=O)N1CCC[C@@H](c2cn(-c3ccc(Oc4ccccc4F)cc3)c3c(N)n[nH]c(=O)c23)C1 [Example 110, 7-amino-3-((S)-1-((E)-3-((R)-1-ethylazetidin-2-yl)acryloyl)piperidin-3-yl)-1-(4-(2-fluorophenoxy)phenyl)-1,5-dihydro-4H-pyrrolo[2,3-d]pyridazin-4-one]",123 nM
17,"C=CC(=O)N1CC[C@H](c2cn(-c3ccc(Oc4c(F)cccc4F)cc3)c3c(N)n[nH]c(=O)c23)C1 [Example 27, (R)-3-(1-acryloylpyrrolidin-3-yl)-7-amino-1-(4-(2,6-difluorophenoxy)phenyl)-1,5-dihydro-4H-pyrrolo[2,3-d]pyridazin-4-one]",47 nM
18,"C=CC(=O)N1CCC[C@H](c2cn(-c3ccc(Oc4c(F)cccc4F)cc3)c3c(N)n[nH]c(=O)c23)C1 [Example 39, (R)-3-(1-acryloylpiperidin-3-yl)-7-amino-1-(4-(2,6-difluorophenoxy)phenyl)-1,5-dihydro-4H-pyrrolo[2,3-d]pyridazin-4-one]",31 nM
19,"CN1CC[C@@H]1/C=C/C(=O)N1CCC[C@@H](c2cn(-c3ccc(Oc4ccccc4)cc3)c3c(N)n[nH]c(=O)c23)C1 [Example 107, 7-amino-3-((S)-1-((E)-3-((R)-1-methylazetidin-2-yl)acryloyl)piperidin-3-yl)-1-(4-phenoxyphenyl)-1,5-dihydro-4H-pyrrolo[2,3-d]pyridazin-4-one]",737 nM
20,"C=CC(=O)N1CC[C@@H](c2cn(-c3ccc(Oc4ccccc4)cc3)c3c(N)n[nH]c(=O)c23)C1 [Example 9, (S)-3-(1-acryloylpyrrolidin-3-yl)-7-amino-1-(4-phenoxyphenyl)-1,5-dihydro-4H-pyrrolo[2,3-d]pyridazin-4-one]",32 nM
21,"CC#CC(=O)N1CC[C@@H](c2cn(-c3ccc(Oc4ccccc4F)cc3)c3c(N)n[nH]c(=O)c23)C1 [Example 75, (S)-7-amino-3-(1-(but-2-ynoyl)pyrrolidin-3-yl)-1-(4-(2-fluorophenoxy)phenyl)-1,5-dihydro-4H-pyrrolo[2,3-d]pyridazin-4-one]",383 nM

# From patent US10800785B2, “Substituted pyrrolo[2,3-d]pyridazin-4-ones and pyrazolo[3,4-d]pyridazin-4-ones as protein kinase inhibitors” (Shanghai Fochon Pharmaceutical Co., Ltd., priority 2016, dated 2020)
